This passage reports IC50 results from US12454534B2, “Pyrrolo[2,3-b]pyrazines as HPK1 inhibitor and the use thereof” (BEIGENE, LTD., priority 2019, dated 2025).

Test [1] addresses T1, HPK1 kinase (aa1-346, Life Technologies) (Homo sapiens, UniProt Q92918).
T1 construct: HPK1 kinase (aa1-346, Life Technologies); purchased Life Technologies
T1 sequence (Q92918 1-346): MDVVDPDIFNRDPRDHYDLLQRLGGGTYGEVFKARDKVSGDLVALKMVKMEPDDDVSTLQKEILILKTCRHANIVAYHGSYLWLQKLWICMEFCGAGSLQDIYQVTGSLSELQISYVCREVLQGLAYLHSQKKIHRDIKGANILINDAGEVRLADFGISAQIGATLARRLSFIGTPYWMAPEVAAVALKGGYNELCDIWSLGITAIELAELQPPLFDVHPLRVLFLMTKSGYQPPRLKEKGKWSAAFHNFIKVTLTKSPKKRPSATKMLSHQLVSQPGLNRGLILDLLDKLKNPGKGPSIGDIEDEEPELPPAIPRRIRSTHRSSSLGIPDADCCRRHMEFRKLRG
Nature of the test: HPK1 Kinase Activity Assay at 1 mM ATP (TR-FRET). It counts as biochemical. The settings on record: HPK1 40 nM, read-out: Enzymatic activity IC50. The essentials: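 HPK1 (aa1-346, 40 nM) pre-incubated 60 min at room temperature with compound (0-10 μM), then reacted 120 min with 1 mM ATP and 0.5 μM STK1 substrate in HEPES pH 7.0 with MgCl2. Phosphorylation read by TR-FRET (665/620 nm); IC50 from four-parameter logistic fit.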
Background: In TR-FRET formats the signal depends on donor and acceptor labels being close together.

For a further test, the system named is HEK293 cells. Nature of the test: HEK293 cell viability assay (CellTiter-Glo). Type of test: cell-based. The settings on record: Homo sapiens, HEK293, 72 h, 3-day exposure, 0 to 10 μM. As to the method: Cytotoxicity on HEK293 Cells Proliferation (HEK293 Cell Viability Assay)
HEK293 cell line were used in this study. Cell lines were maintained in DMEM (Dulbecco's Modified Eagle Medium) supplemented with 10% fetal bovine serum (Thermo Fisher), 50 units/mL penicillin and streptomycin (Thermo Fisher) and kept at 37° C. in a humidified atmosphere containing 5% CO2 in air. Cell lines were reinstated from frozen stocks that were laid down within 50 passages from the original cells purchased. The growth-inhibitory activity of compounds in HEK293 cells was determined using CellTiter-Glo luminescent cell viability assay (Promega). 3000 cells per well were seeded into a 96-well plate to ensure logarithmic growth for 3 days treatment period. Cells were treated with a 10-point dilution series. The final compound concentration was from 0 to 10 μM. Following a 3-day exposure to the test compounds, 30 μL of CellTiter-Glo reagent was added into 100 μL cell culture medium per well. Mixture was mixed on an orbital shaker for 2 minutes to allow cell lysis, followed by 10 minutes of incubation at room temperature to allow development and stabilization of luminescent signal, which corresponded to the quantity of ATP and thus the quantity of metabolically active cells. Luminescent signal was measured using PHERAstar FS reader (BMG Labtech). IC50 values for cell viability were determined with Dotmatics.
In general terms: ATP-based viability assays read luminescence as a measure of living cells.

pIC50: −log10 of the molar value.

As a reminder, the pIC50 is the IC50 on a negative log10 scale, so that one unit is a factor of ten.

Turning to `COc1cc(-c2cnc3[nH]cc(-c4ccc(C(=O)N(C)C[C@@H](C)O)cc4)c3n2)cc2c1CN(C)CC2` [Example 10, (R)—N-(2-hydroxypropyl)-4-(2-(8-methoxy-2-methyl-1,2,3,4-tetrahydroisoquinolin-6-yl)-5H-pyrrolo[2,3-b]pyrazin-7-yl)-N-methylbenzamide], the negative logarithm of the IC50 (pIC50) in test [1] is 7.96; with HEK293 cells, 5.85.

For `Cc1cc(-c2cnc3[nH]cc(-c4ccc(C(=O)N(C)CC(C)(C)O)cc4)c3n2)cc2c1CCN(C)C2` [Example 20, 4-(2-(2,5-dimethyl-1,2,3,4-tetrahydroisoquinolin-7-yl)-5H-pyrrolo[2,3-b]pyrazin-7-yl)-N-(2-hydroxy-2-methylpropyl)-N-methylbenzamide], the values for the pIC50 (in test [1]; with HEK293 cells) were 7.19 and 5.41, respectively.

In the case of `COc1cc(-c2cnc3[nH]cc(-c4ccc(C(=O)N5CC6(COC6)C5)cc4)c3n2)cc2c1CN(C)CC2` [Example 15, (4-(2-(8-methoxy-2-methyl-1,2,3,4-tetrahydroisoquinolin-6-yl)-5H-pyrrolo[2,3-b]pyrazin-7-yl)phenyl) (2-oxa-6-azaspiro[3.3]heptan-6-yl)methanone], the pIC50 was 7.77 in test [1] and 5.98 with HEK293 cells.
